Measurements: patent US8604042B2, “Bi-aryl meta-pyrimidine inhibitors of kinases” (TargeGen, Inc., priority 2005, dated 2013)
“Also recorded” adds a separate entry of the source.

Experiments:
[1] = tested on: bleomycin induced dermal fibrosis; experiment: Mouse model of bleomycin induced dermal fibrosis; assay type: in vivo; conditions: low dose (30 mg/kg, bid) and high dose (100 mg/kg, bid)
Experimental: In vivo studies using compound CLXII were conducted in a mouse model of bleomycin induced dermal fibrosis. FIG. 41 indicates the results of administering a low dose (30 mg/kg, bid) and a high dose (100 mg/kg, bid) of CLXII.

[2] = tested on: fibroblasts from sclerotic patients and healthy fibroblasts; experiment: Extracellular matrix protein production in fibroblasts (real-time PCR); assay type: cell-based, human
Experimental: An in-vitro study was conducted using compound CLXII to examine the production of extracellular matrix proteins responsible for fibrosis in fibroblasts from sclerotic patients and healthy fibroblasts.

[3] = tested on: HEL cells; experiment: XTT cell proliferation assay, HEL cells; assay type: cell-based; conditions: Homo sapiens
[4] = tested on: parental Ba/F3 cells; experiment: Growth of parental Ba/F3 cells; assay type: cell-based; conditions: Mus musculus, BaF3; data not shown
Excerpt: (§1) […]. data not shown), reflecting their dependence on signaling by wild type JAK2. […].

[5] = tested on: phospho-JAK2V617F, phospho-STAT5, phospho-STAT3; experiment: Phosphorylation of JAK2V617F, STAT5 and STAT3 in HEL cells; assay type: cell-based; conditions: Homo sapiens, read-out: IC50, levels of phospho-JAK2V617F, phospho-STAT5, phospho-STAT3
[6] = tested on: normal human dermal fibroblasts (NHDF); experiment: XTT cell proliferation assay, normal human dermal fibroblast control; assay type: cell-based; conditions: Control data: Normal human dermal fibroblast control
Experimental: (§2) HEL, CTLL-2 & normal human dermal fibroblasts (NHDF) were from the American Tissue Culture Collection Rockville, Md.). BaF/3 cells were obtained from DKFZ Cancer Research Center (Heidelberg, Germany).
(§3) BaF/3, HEL & NHDF cells were grown in RPMI 1640 medium (Gibco BRL, Gaithersburg, Md.) supplemented with penicillin, streptomycin, L-glutamine, and 10% fetal bovine serum (FBS). CTLL-2 cells were grown in the same media further supplemented with 20 U/mL recombinant IL-2 (Hoffmann-LaRoche, Nutley, N.J.). Plasmid containing the human JAK2 coding sequence was purchased from Invitrogen (Madison, Wis.). JAK2^V617F cDNA was generated by using site-directed mutagenesis to introduce the V617F mutation into the human JAK2 coding sequence followed by verification using two-directional sequencing. […]
(§4) Cell proliferation assay was performed using the XTT cell proliferation kit according to the manufacturer's instructions (Roche, Alameda, Calif.). […] The colored formazan product that is formed was measured spectrophotometrically using the Vmax spectrophotometer (Molecular Devices, Sunnyvale, Calif.) at 450 nm with correction at 650 nm. IC50 values were determined using the GraphPad Prism 4.0 software (San Diego, Calif.), wherefore OD values were plotted on y-axis (linear scale) and concentration (mM) on the x-axis (log scale).

[7] = tested on: STAT5 phosphorylation; experiment: STAT5 phosphorylation in Ba/F3-V617F cells; assay type: cell-based; conditions: data not shown
Experimental: Protein concentration was determined using the BCA method (Pierce, Rockford, Ill.) and 100 μg of total cellular protein of each sample in 1× Laemmli buffer were subjected to Western blot analysis. The protein blot was probed with an anti-phospho-STAT5 (Tyr694/699) (Upstate Biotechnology, Charlottesville, Va.), subsequently stripped and re-probed with an anti-STAT5 antibody (Cell Signaling Technology, Danvers, Mass.). The phospho-STAT5 or STAT5 protein was visualized by the enhanced chemoluminescence method (Pierce). In vivo signaling studies were done in a similar fashion. […] Spleens were harvested 7 h after dosing and quickly homogenized in a FastPrep machine (Qbiogen, Irvine, Calif.). 100 μg of each spleen homogenate were subjected to Western blot analysis. The protein […] anti-phospho-STAT5 (Tyr694/699) (Upstate Biotechnology, Charlottesville, Va.), subsequently stripped and re-probed with an anti-STAT5 antibody (Cell Signaling Technology, Danvers, Mass.). The phospho-STAT5 or STAT5 protein was visualized by the enhanced chemoluminescence method (Pierce). In vivo signaling studies were done in a similar fashion. […] Spleens were harvested 7 h after dosing and quickly homogenized in a FastPrep machine (Qbiogen, Irvine, Calif.). 100 μg of each spleen homogenate were subjected to Western blot analysis. […]

[8] = tested on: BCR-ABL+K562 cells; experiment: Growth of K562 cells; assay type: cell-based; conditions: Homo sapiens, control experiments
Excerpt: as §1

[9] = tested on: BaF/3 cells expressing JAK2^V617F and GFP; experiment: JAK2V617F-driven circulating tumor model in SCID mice; assay type: in vivo, mouse; conditions: oral 10, 30 or 100 mg/kg; day 11; FACS, GFP positive cells
[10] = tested on: CTLL-2 cells; experiment: IL-2-induced JAK3-dependent proliferation of CTLL-2 cells; assay type: cell-based; conditions: Mus musculus
Experimental: as §2, §3, §4

## Cc1ccc(Nc2nc(Nc3ccc(N4CCN(C)CC4)cc3)ncc2C)cc1C [CLXII]
[1]
  bleomycin induced dermal fibrosis: prevention of bleomycin induced dermal fibrosis
[2]; real-time PCR, 5% FCS, sclerotic vs normal fibroblasts
  basal synthesis of collagen 1a1: inhibition of basal synthesis of collagen 1a1 in sclerotic fibroblasts, but not normal, fibroblasts; also recorded: inhibition of basal synthesis of collagen 1a1 in sclerotic, but not normal, fibroblasts
[2]; sclerotic or normal fibroblasts
  basal synthesis of fibronectin 1: dose not inhibit basal synthesis of fibronection-1 in either sclerotic or normal fibroblasts
[2]; sclerotic vs normal fibroblasts
  basal synthesis of collagen 1a2: some inhibition of basal synthesis of collagen 1a2 in sclerotic fibroblasts, but not normal, fibroblasts

## Cc1cnc(Nc2ccc(N3CCN(C)CC3)cc2)nc1Nc1cccc(S(=O)(=O)NC(C)(C)C)c1 [XLV]
[3]; XTT, 72 hour incubation
  EC50: 0.27 µM
[3]; homozygous for the JAK2V617F allele, FIG. 32C, read-out: IC50, HEL cells
  IC50: 0.3 µM
[4]
  IC50: 0.47 µM
[5]
  IC50: 0.3 to 0.6 µM
[6]
  EC50: 6.49 µM
[7]
  IC50: 0.3 µM
[8]
  IC50: 1 µM
[9]
  number of circulating JAK2^V617F tumor cells: reduces the number of circulating JAK2^V617F tumor cells in a dose-dependent manner
[10]; Control data: IL-2-induced JAK3-dependent proliferation
  EC50: 3.4 µM
[10]; IL-2 dependent cytotoxic T-cells, FIG. 32B, read-out: IC50, growth of CTLL-2 cells
  IC50: 3.4 µM
